The source of these data is patent US8936930B2, “Red microalgae expressing exogenous polypeptides and methods of generating and utilizing same” (priority 2004, dated 2015).

This assay has as its system Porphyridium sp. Kind of assay: Antibiotic sensitivities of Porphyridium sp. (growth in ASW supplemented with antibiotic). Further details: key to Growth: ++: no inhibition of growth rate; +: slight inhibition of growth rate; −: no growth. The class given is cell-based, Porphyridium sp. (UTEX 637). The note with it: for Growth: Porphyridium sp. in ASW. As to the method: Porphyridium sp. (UTEX 637, from the culture collection of algae at the University of Texas at Austin) cells were cultured in artificial seawater (ASW; Jones et al. Plant Physiol. 16:636-643, 1963) supplemented with different antibiotic compounds for evaluating antibiotic sensitivities.

`O=C(N[C@H](CO)[C@H](O)c1ccc([N+](=O)[O-])cc1)C(Cl)Cl` [Chloramphenicol]: the Growth result by setting is: (200 μg/ml) “+”; (500 μg/ml) “−”.

Regarding `C[C@@H]1C[C@@H]([C@H](O)CC2CC(=O)NC(=O)C2)C(=O)[C@@H](C)C1` [Cyclohexhimide], the Growth entry (5 μM) is on record as “−”.

In the case of `CN[C@@H]1[C@@H](O)[C@@H](O[C@@H]2[C@@H](O)[C@H](O[C@H]3O[C@H]([C@@H](C)O)[C@@H](O)[C@H](O)[C@H]3N)[C@@H](N)C[C@H]2N)OC[C@]1(C)O` [G418], the Growth result (2 μg/ml) was “+”.

In the case of `NC[C@H]1O[C@H](O[C@H]2[C@H](O)[C@@H](O[C@H]3O[C@H](CO)[C@@H](O)[C@H](N)[C@H]3O)[C@H](N)C[C@@H]2N)[C@H](O)[C@@H](O)[C@@H]1O` [Kanamycin], where the note is “700 μg/ml”, the Growth result was “++”.

Consider `CCC[C@@H]1C[C@@H](C(=O)N[C@@H]([C@H]2O[C@H](SC)[C@H](O)[C@@H](O)[C@H]2O)[C@@H](C)O)N(C)C1` [Lincomycin], for which, for the setting “300 μg/ml”, the Growth result is given as “++”.

Take `CN(Cc1cnc2nc(N)nc(N)c2n1)c1ccc(C(=O)N[C@@H](CCC(=O)O)C(=O)O)cc1` [Methotrexate]: for the setting “80 μg/ml”, the Growth result is “++”.

With `NC[C@@H]1O[C@H](O[C@H]2[C@@H](O)[C@H](O[C@@H]3[C@@H](O)[C@H](N)C[C@H](N)[C@H]3O[C@H]3O[C@H](CO)[C@@H](O)[C@H](O)[C@H]3N)O[C@@H]2CO)[C@H](N)[C@@H](O)[C@@H]1O` [Paramomycin], the Growth result (200 μg/ml) is “++”.

`CN[C@@H]1[C@H](O)[C@H](NC)[C@H]2O[C@@]3(O)C(=O)C[C@@H](C)O[C@H]3O[C@@H]2[C@H]1O` [Spectinomycin]: the Growth entry (300 μg/ml) was “++”.

For `Cc1c(N)nc([C@H](CC(N)=O)NC[C@H](N)C(N)=O)nc1C(=O)N[C@H](C(=O)N[C@H](C)[C@@H](O)[C@H](C)C(=O)N[C@H](C(=O)NCCC1=N[C@@H](c2nc(C(=O)NCCCCN=C(N)N)cs2)CS1)[C@@H](C)O)[C@@H](O[C@@H]1O[C@@H](CO)[C@@H](O)[C@H](O)[C@@H]1O[C@H]1O[C@H](CO)[C@@H](O)[C@H](OC(N)=O)[C@@H]1O)c1cnc[nH]1` [Zeocin], the “Growth of untransformed (wild-type) Porphyridium sp. (in words)” value (zeocin 4 μg/ml, 17 days incubation in ASW medium) is recorded as “no growth”. For the same compound, the “Growth of wild type Porphyridium sp. (in words)” value (zeocin 10 μg/ml) was “no growth”. For the same compound, the “Growth of Porphyridium sp. (in words)” value (zeocin 4-8 μg/ml) is listed as “no growth”.

As for Neomycin, the Growth result (150 μg/ml) is listed as “++”.

In the case of Phleomycin, for the setting “10 μg/ml”, the Growth entry is recorded as “++”.
